# From patent US20230125585A1, “DOSING PROTOCOLS AND REGIMENS FOR AMINOSTEROL TREATMENT” (Enterin, Inc., priority 2019, published 2023)
# Like-named read-outs stand apart in the source and are kept apart here.
# Legend:
# [1] = short term placebo controlled trial, PD constipation; cited from earlier work
# α-synuclein protein = α-synuclein protein (Homo sapiens, UniProt P37840); settings: cited from earlier work
# [2] = Phase 2a (n = 34), drug related adverse events; format: in vivo, human
# mouse stomach mRNA = test: Oral dosing of squalamine (ENT-01) in old mice, stomach transcriptome by RNAseq; format: in vivo
# Description: The present example evaluated the impact of oral dosing of squalamine (ENT-01) on the gastrointestinal (GI) tissue of old mice (78 weeks). […] After 2 weeks of dosing the animals were euthanized, and the GI tracts sectioned into stomach, duodenum, jejunum, ileum, caecum, colon, and rectum. The stomach tissues were then sent for histology, and the transcriptomes analyzed by RNAseq.
# The dosing schedule used to determine the effect of orally administered squalamine and MSI-1436 on the GI tracts of young and old mice was as follows. Male C57Bl/6 mice, aged 20 and 78 weeks, were obtained from Jackson labs. Animals were exposed to 12 hr light dark cycles and provided Teklad standard mouse diet and water ad lib.
# Animals were dosed once daily by oral gavage in the morning for a total of 14 days. Animals were fasted 3-4 hours prior to dosing and 1 hour following. The test article was dissolved in 0.5% hydroxypropylcellulose in water. On day 15 the animals were euthanized by CO2 asphyxiation, necropsied, and tissues prepared for histology and RNAseq analysis.
# The GI tracts of the animals were sectioned into stomach, duodenum, jejunum, ileum, caecum, colon, and rectum. The tissues were then sent for histology, and the transcriptomes analyzed by RNAseq.
# [3] = Phase 2(b) study, aminosterol dosage and body position, Parkinson's disease patients
# [4] = Absorption / oral bioavailability of aminosterols; format: in vivo; settings: oral administration
# [5] = human, in vivo, 25 days
# [6] = orally administered; mice with constipation due to overexpression of human αS; cited from earlier work
# [7] = intravenous administration; cited from earlier work
# [8] = 15 patients with assessable MMSE improvement
smiles,measurement,setting,value
CCCCC(F)(F)[C@@]1(O)CC[C@H]2[C@@H](CC(=O)[C@@H]2CCCCCCC(=O)O)O1 [Lubiprostone],share of treated in whom effective,[1],about 50%
CC(C)[C@@H](CC[C@@H](C)[C@H]1CC[C@H]2[C@@H]3[C@H](O)C[C@H]4C[C@@H](NCCCNCCCCNCCCN)CC[C@]4(C)[C@H]3CC[C@]12C)OS(=O)(=O)O [aminosterol 1436],initiation of aggregation of the α-synuclein protein,α-synuclein protein,inhibit the initiation of aggregation
CC(C)[C@@H](CC[C@@H](C)[C@H]1CC[C@H]2[C@@H]3[C@H](O)C[C@H]4C[C@@H](NCCCNCCCCN)CC[C@]4(C)[C@H]3CC[C@]12C)OS(=O)(=O)O [squalamine],"Drug related adverse event Diarrhea, Mild, %",[2],(35) %
same,"Drug related adverse event Diarrhea, Moderate, %",[2],(5.8) %
same,"Drug related adverse event Diarrhea, Severe, %",[2],(2.9) %
same,"Drug related adverse event Dizziness, Mild, %",[2],(20.5) %
same,"Drug related adverse event Dizziness, Moderate, %",[2],(2.9) %
same,"Drug related adverse event Nausea, Mild, %",[2],(47) %
same,"Drug related adverse event Nausea, Moderate, %",[2],(2.9) %
same,"Drug related adverse event Vomiting, Mild, %",[2],(5.8) %
same,initiation of aggregation of the α-synuclein protein,α-synuclein protein,inhibit the initiation of aggregation
same,Corneodesmosin mRNA % increase,mouse stomach mRNA; old + Ent-01 vs old mice,94%
same,Cornifelin mRNA % increase,mouse stomach mRNA; old + Ent-01 vs old mice,261%
same,Dermokine mRNA % increase,mouse stomach mRNA; old + Ent-01 vs old mice,290%
same,Filaggrin mRNA % increase,mouse stomach mRNA; old + Ent-01 vs old mice,671%
same,H19_imprinted_maternally_expressed_transcript mRNA % increase,mouse stomach mRNA; old + Ent-01 vs old mice,656%
same,Hornerin mRNA % increase,mouse stomach mRNA; old + Ent-01 vs old mice,253%
same,Loricrin mRNA % increase,mouse stomach mRNA; old + Ent-01 vs old mice,381%
same,Myoglobin mRNA % increase,mouse stomach mRNA; old + Ent-01 vs old mice,437%
same,Sciellin mRNA % increase,mouse stomach mRNA; old + Ent-01 vs old mice,219%
same,caspase_14 mRNA % increase,mouse stomach mRNA; old + Ent-01 vs old mice,664%
same,collagen_type_XVII_alpha_1 mRNA % increase,mouse stomach mRNA; old + Ent-01 vs old mice,256%
same,cystatin_E/M mRNA % increase,mouse stomach mRNA; old + Ent-01 vs old mice,491%
same,desmocollin_1 mRNA % increase,mouse stomach mRNA; old + Ent-01 vs old mice,104%
same,desmoglein_1_beta mRNA % increase,mouse stomach mRNA; old + Ent-01 vs old mice,184%
same,gap_junction_protein_beta_4 mRNA % increase,mouse stomach mRNA; old + Ent-01 vs old mice,470%
same,gap_junction_protein_beta_6 mRNA % increase,mouse stomach mRNA; old + Ent-01 vs old mice,455%
same,kallikrein_related-peptidase_7_(chymotryptic_stratum mRNA % increase),mouse stomach mRNA; old + Ent-01 vs old mice,847%
same,keratin_1 mRNA % increase,mouse stomach mRNA; old + Ent-01 vs old mice,425%
same,keratin_10 mRNA % increase,mouse stomach mRNA; old + Ent-01 vs old mice,610%
same,keratinocyte_differentiation_associated_protein mRNA % increase,mouse stomach mRNA; old + Ent-01 vs old mice,407%
same,keratinocyte_expressed_proline-rich mRNA % increase,mouse stomach mRNA; old + Ent-01 vs old mice,270%
same,late_cornified_envelope_1A1 mRNA % increase,mouse stomach mRNA; old + Ent-01 vs old mice,339%
same,late_cornified_envelope_1A2 mRNA % increase,mouse stomach mRNA; old + Ent-01 vs old mice,361%
same,late_cornified_envelope_1B mRNA % increase,mouse stomach mRNA; old + Ent-01 vs old mice,471%
same,late_cornified_envelope_1C mRNA % increase,mouse stomach mRNA; old + Ent-01 vs old mice,338%
same,late_cornified_envelope_1E mRNA % increase,mouse stomach mRNA; old + Ent-01 vs old mice,340%
same,late_cornified_envelope_1F mRNA % increase,mouse stomach mRNA; old + Ent-01 vs old mice,338%
same,late_cornified_envelope_1G mRNA % increase,mouse stomach mRNA; old + Ent-01 vs old mice,197%
same,late_cornified_envelope_1H mRNA % increase,mouse stomach mRNA; old + Ent-01 vs old mice,233%
same,late_cornified_envelope_1I mRNA % increase,mouse stomach mRNA; old + Ent-01 vs old mice,654%
same,late_cornified_envelope_1J mRNA % increase,mouse stomach mRNA; old + Ent-01 vs old mice,296%
same,late_cornified_envelope_1L mRNA % increase,mouse stomach mRNA; old + Ent-01 vs old mice,365%
same,late_cornified_envelope_1M mRNA % increase,mouse stomach mRNA; old + Ent-01 vs old mice,656%
same,late_cornified_envelope_3C mRNA % increase,mouse stomach mRNA; old + Ent-01 vs old mice,130%
same,late_cornified_envelope_3E mRNA % increase,mouse stomach mRNA; old + Ent-01 vs old mice,205%
same,late_cornified_envelope_3F mRNA % increase,mouse stomach mRNA; old + Ent-01 vs old mice,192%
same,lectin_galactose_binding_soluble_7 mRNA % increase,mouse stomach mRNA; old + Ent-01 vs old mice,481%
same,myosin_binding_protein_C_slow-type mRNA % increase,mouse stomach mRNA; old + Ent-01 vs old mice,209%
same,myosin_heavy_polypeptide_1_skeletal_muscle mRNA % increase,mouse stomach mRNA; old + Ent-01 vs old mice,289%
same,myosin_heavy_polypeptide_8_skeletal_muscle mRNA % increase,mouse stomach mRNA; old + Ent-01 vs old mice,371%
same,myosin_light_chain_phosphorylatable_fast_skeletal mRNA % increase,mouse stomach mRNA; old + Ent-01 vs old mice,295%
same,myosin_light_polypeptide_3 mRNA % increase,mouse stomach mRNA; old + Ent-01 vs old mice,747%
same,myozenin_1 mRNA % increase,mouse stomach mRNA; old + Ent-01 vs old mice,524%
same,myozenin_2 mRNA % increase,mouse stomach mRNA; old + Ent-01 vs old mice,341%
same,titin-cap mRNA % increase,mouse stomach mRNA; old + Ent-01 vs old mice,298%
same,mRNA levels for all of the genes in Table 4,mouse stomach mRNA; old mice after treatment with squalamine,significant increase
same,patients with MMSE improvement of 3 or more points,[3]; [8],33%
same,patients with MMSE improvement of 4 or more points,[3]; [8],20%
same,patients with MMSE improvement of 5 or more points,[3]; [8],13%
same,patients with MMSE improvement of 6 or more points,[3]; [8],1/15
same,patients responding to drug treatment (increase in CSBM),"[3]; 29 patients with assessable bowel movements, 75 or 150 mg/daily, 25 days",About 80%
same,hallucinations,"[3]; Phase 2(b), PD patients",reduction in hallucinations
same,sleep fragmentation,"[3]; Phase 2(b), PD patients",decrease in sleep fragmentation
same,total sleep time,"[3]; Phase 2(b), PD patients",increase in total sleep time
same,"bowel function, MMSE scores, amount and quality of sleep, other neurological indices (UPDRS)","[3]; dose taken sitting or standing, compared to lying down",qualitative improvements
same,"Unrelated adverse event Flu-like symptoms*, Mild, %",[3]; n = 47,(6.3) %
same,absorption in blood,[4],less than 0.3%
same,"Drug related adverse event Diarrhea, Mild, %",[5],(2.7) %
same,"Drug related adverse event Diarrhea, Moderate, %",[5],(2.7) %
same,"Drug related adverse event Diarrhea, Severe, %",[5],(2.7) %
same,"Drug related adverse event Dizziness, Mild, %",[5],(3) %
same,"Drug related adverse event Nausea, Mild, %",[5],(6.3) %
same,"Drug related adverse event Nausea, Moderate, %",[5],(2.7) %
same,"Drug related adverse event Vomiting, Mild, %",[5],(2.7) %
same,"Drug related adverse event Vomiting, Moderate, %",[5],(2.7) %
same,"Unrelated adverse event Contusion*, Mild, %",[5],(2.1) %
same,"Unrelated adverse event Dizziness, Mild, %",[5],(4.2) %
same,"Unrelated adverse event Fall*, Mild, %",[5],(4.2) %
same,"Unrelated adverse event Fall*, Moderate, %",[5],(2.1) %
same,"Unrelated adverse event Pain*, Mild, %",[5],(2.1) %
same,"Unrelated adverse event Pain*, Moderate, %",[5],(2.1) %
same,"Unrelated adverse event Phlebotomy site irritation*, Mild, %",[5],(2.1) %
same,"Unrelated adverse event Rectal burning, Mild, %",[5],(2.1) %
same,"Unrelated adverse event Rib fracture*, Mild, %",[5],(2.1) %
same,"Unrelated adverse event Squamous cell Ca*, Mild, %",[5],(2.1) %
same,"Unrelated adverse event Syncope*, Moderate, %",[5],(2.1) %
same,gastrointestinal motility,[6],stimulates gastrointestinal motility
same,gastrointestinal motility,[7],not associated with increased gastrointestinal motility
